Our source for the T/C values is PubChem BioAssay AID192 (DTP/NCI, 2004).

In this test the test system is BDF1 mice, B16 melanoma ip, median survival T/C. Nature of the test: NCI In Vivo Anticancer Drug Screen. Data for tumor model B16 Melanoma (intraperitoneal) in B6D2F1 (BDF1) mice. The note with it: endpoint: median survival time, higher = longer survival. The method in brief:
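Vehicle-treated animals serve as the reference (C); treated animals (T) are scored for survival or tumor size after tumor transplantation.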

[1] abbreviates: dose: 6.25 mg/kg/injection, schedule: Q01DX009 (ip), vehicle: saline with Tween-80.
Setting [2] is: dose: 12.5 mg/kg/injection, schedule: Q01DX009 (ip), vehicle: saline with Tween-80.
[3] abbreviates: dose: 25.0 mg/kg/injection, schedule: Q01DX009 (ip), vehicle: saline with Tween-80.
[4] abbreviates: dose: 50.0 mg/kg/injection, schedule: Q01DX009 (ip), vehicle: saline with Tween-80.
Where [5] appears, read: dose: 200.0 mg/kg/injection, schedule: Q01DX009 (ip), vehicle: saline with Tween-80.
[6] abbreviates: dose: 100.0 mg/kg/injection, schedule: Q01DX009 (ip), vehicle: saline with Tween-80.
Setting [7] is: dose: 100.0 mg/kg/injection, schedule: Q01DX009 (ip), vehicle: saline.
The mark [8] stands for this setting: dose: 12.5 mg/kg/injection, schedule: Q04DX003 (ip), vehicle: saline.
Where [9] appears, read: dose: 100.0 mg/kg/injection, schedule: Q01DX009 (ip), vehicle: Klucel (hydroxypropylcellulose) (HPC).
[10] abbreviates: dose: 200.0 mg/kg/injection, schedule: Q01DX009 (ip), vehicle: Klucel (hydroxypropylcellulose) (HPC).
Where [11] appears, read: dose: 12.5 mg/kg/injection, schedule: Q01DX009 (ip), vehicle: saline.
The mark [12] stands for this setting: dose: 25.0 mg/kg/injection, schedule: Q01DX009 (ip), vehicle: saline.
The mark [13] stands for this setting: dose: 50.0 mg/kg/injection, schedule: Q01DX009 (ip), vehicle: saline.

Inconclusive results and toxic doses are left out. Square brackets hold non-standard residues; d marks the D form. Peptide text beside a SMILES is read from it. * marks the point of attachment. ξ: configuration not given here. ξF = NC(Cc1ccccc1)C(=O)O; Bz = O=C(c1ccccc1)*

Take `COc1ccc(S(=O)(=O)N=N/C=C2\C=CC=CN2O)cc1OC`: the T/C is, setting by setting: under setting [1], 99 % of control; under setting [2], 100 % of control; under setting [3], 112 % of control; under setting [4], 112 % of control; under setting [5], 161 % of control.

`O=C(O)C(=O)O.O=C(O)C(=O)O.OO.OO.[Nb]`: the T/C was 100 % of control (dose: 3.13 mg/kg/injection, schedule: Q01DX009 (ip), vehicle: water); 101 % of control (dose: 6.25 mg/kg/injection, schedule: Q01DX009 (ip), vehicle: water); 103 % of control (dose: 12.5 mg/kg/injection, schedule: Q01DX009 (ip), vehicle: water); 112 % of control (dose: 25.0 mg/kg/injection, schedule: Q01DX009 (ip), vehicle: water); 96 % of control (dose: 50.0 mg/kg/injection, schedule: Q01DX009 (ip), vehicle: water).

`CCCN1COC(OCC)C(C)(C)C1` (configuration not stated): the T/C reads like this: under setting [3], 104 % of control; under setting [4], 100 % of control; under setting [6], 98 % of control; under setting [5], 100 % of control.

As for `O=[N+]([O-])c1cccc(P(=O)(c2cccc([N+](=O)[O-])c2)c2cccc([N+](=O)[O-])c2)c1`, the T/C by setting is: under setting [7], 105 % of control; (dose: 100.0 mg/kg/injection, schedule: Q04DX003 (ip), vehicle: saline) 94 % of control; (dose: 200.0 mg/kg/injection, schedule: Q01DX009 (ip), vehicle: saline) 100 % of control; (dose: 200.0 mg/kg/injection, schedule: Q04DX003 (ip), vehicle: saline) 100 % of control; (dose: 400.0 mg/kg/injection, schedule: Q01DX009 (ip), vehicle: saline) 107 % of control; (dose: 400.0 mg/kg/injection, schedule: Q04DX003 (ip), vehicle: saline) 100 % of control.

With `CC(C)CN(C)/N=N/c1nc[nH]c1C(N)=O`, the T/C (dose: 18.75 mg/kg/injection, schedule: Q01DX009 (ip), vehicle: carboxymethylcellulose (CMC)) was 111 % of control and the T/C (dose: 75.0 mg/kg/injection, schedule: Q01DX009 (ip), vehicle: carboxymethylcellulose (CMC)) was 123 % of control.

Take `Nc1nc(=S)c2[nH]c(N=Nc3ccc(S(=O)(=O)O)cc3)nc2[nH]1`: the T/C is, setting by setting: (dose: 6.25 mg/kg/injection, schedule: Q04DX003 (ip), vehicle: saline) 107 % of control; under setting [8], 109 % of control.

As for `c1ccc([I+]c2ccccc2)cc1`, the T/C is 103 % of control (dose: 1.0 mg/kg/injection, schedule: Q01DX009 (ip), vehicle: saline + Tween-80 + alcohol); 97 % of control (dose: 2.0 mg/kg/injection, schedule: Q01DX009 (ip), vehicle: saline + Tween-80 + alcohol); 108 % of control (dose: 4.0 mg/kg/injection, schedule: Q01DX009 (ip), vehicle: saline + Tween-80 + alcohol); 100 % of control (dose: 6.0 mg/kg/injection, schedule: Q01DX009 (sc), vehicle: olive oil, sesame oil, peanut oil).

Take `CC(C)C1(c2ccsc2)NC(=O)NC1=O` (configuration not stated): the T/C by setting is: (dose: 50.0 mg/kg/injection, schedule: Q01DX009 (ip), vehicle: Klucel (hydroxypropylcellulose) (HPC)) 108 % of control; under setting [9], 122 % of control; under setting [10], 109 % of control.

Take `O=N[O-].[Co].[NH2-].[NH2-].[NH2-].[NH2-].[NH2-]`: the T/C is 90 % of control under setting [11]; 107 % of control under setting [8]; 97 % of control under setting [12]; 105 % of control (dose: 25.0 mg/kg/injection, schedule: Q04DX003 (ip), vehicle: saline); 100 % of control under setting [13]; 100 % of control (dose: 50.0 mg/kg/injection, schedule: Q04DX003 (ip), vehicle: saline).

With `COC(=O)C(C#N)=C(C)C`, the T/C (dose: 10.0 mg/kg/injection, schedule: Q01DX009 (ip), vehicle: saline with Tween-80) was 100 % of control; the T/C (dose: 20.0 mg/kg/injection, schedule: Q01DX009 (ip), vehicle: saline with Tween-80) is 98 % of control; the T/C (dose: 40.0 mg/kg/injection, schedule: Q01DX009 (ip), vehicle: saline with Tween-80) was 94 % of control.

Take `Cc1cnc2c(=N)n(C(=O)C(F)(F)F)n(C)c2n1`: the T/C was 90 % of control under setting [9] and 94 % of control under setting [10].

As to `Clc1ccc2c(c1)/C(=C/c1ccccc1Cl)c1cc(Cl)cc(Cl)c1-2`, the T/C under setting [1] is 90 % of control and the T/C under setting [2] was 88 % of control.

As for `O=[N+]([O-])c1cc(F)ccc1O`, under setting [3], the T/C was 100 % of control.

Turning to `C#CCN(C)Cc1ccccc1`, the T/C was 97 % of control under setting [11], 97 % of control under setting [12] and 100 % of control under setting [13].

Consider `CC(=O)c1ccc(Oc2ccc(/C(C)=N\N=C(N)N)cc2)cc1`, for which the T/C is, setting by setting: under setting [2], 95 % of control; under setting [3], 92 % of control.

As to `O=C(Nc1ccccc1)OCC(CN1CCCCC1)OC(=O)Nc1ccccc1` (configuration not stated), the T/C (dose: 50.0 mg/kg/injection, schedule: Q04DX003 (ip), vehicle: saline with Tween-80) is 104 % of control; the T/C (dose: 100.0 mg/kg/injection, schedule: Q04DX003 (ip), vehicle: saline with Tween-80) was 102 % of control; the T/C (dose: 200.0 mg/kg/injection, schedule: Q04DX003 (ip), vehicle: saline with Tween-80) was 100 % of control.

As for `O=C(CNC(=O)c1ccccc1)NCC(=O)NC(Cc1ccccc1)C(=O)O` (stereo not drawn) (Bz-Gly-Gly-[ξF]-OH), the T/C is, setting by setting: under setting [4], 90 % of control; under setting [6], 87 % of control; under setting [5], 90 % of control.

In the case of `CCC12C=CCN3CCC4(c5cc(C6c7[nH]c8ccccc8c7CCN7CCCCC67)c(OC)cc5N(C)C4C(O)(C(=O)OC)C1OC(C)=O)C32` (configuration not stated), the T/C runs as follows: (dose: 0.06 mg/kg/injection, schedule: Q01DX009 (ip), vehicle: other) 98 % of control; (dose: 0.13 mg/kg/injection, schedule: Q01DX009 (ip), vehicle: other) 96 % of control; (dose: 0.25 mg/kg/injection, schedule: Q01DX009 (ip), vehicle: other) 96 % of control; (dose: 0.5 mg/kg/injection, schedule: Q01DX009 (ip), vehicle: other) 108 % of control; (dose: 1.0 mg/kg/injection, schedule: Q01DX009 (ip), vehicle: other) 108 % of control; (dose: 2.0 mg/kg/injection, schedule: Q01DX009 (ip), vehicle: other) 108 % of control.

As to `CN1CCc2cc3c(cc2C1)OCO3`, the T/C under setting [12] is 94 % of control, the T/C under setting [13] was 93 % of control and the T/C under setting [7] is 95 % of control.

Turning to `CCN1C(=O)CN(CCN2CC(=O)N(c3ccccc3)C2=S)C1=S`, the T/C by setting is: (dose: 18.75 mg/kg/injection, schedule: Q01DX009 (ip), vehicle: saline with Tween-80) 112 % of control; (dose: 37.5 mg/kg/injection, schedule: Q01DX009 (ip), vehicle: saline with Tween-80) 120 % of control.
